Among the data in BindingDB's records for patent US12370182 (Richter Gedeon, 2025) are Ki values, retold here.

In general, Ki refers to a measure of affinity in units of concentration, obtained from inhibition or displacement. A higher Ki goes with lower affinity.

The assay deals with T1, Gamma-aminobutyric acid receptor subunit alpha-5 (Homo sapiens, UniProt P31644).
T1 sequence (P31644 whole entry): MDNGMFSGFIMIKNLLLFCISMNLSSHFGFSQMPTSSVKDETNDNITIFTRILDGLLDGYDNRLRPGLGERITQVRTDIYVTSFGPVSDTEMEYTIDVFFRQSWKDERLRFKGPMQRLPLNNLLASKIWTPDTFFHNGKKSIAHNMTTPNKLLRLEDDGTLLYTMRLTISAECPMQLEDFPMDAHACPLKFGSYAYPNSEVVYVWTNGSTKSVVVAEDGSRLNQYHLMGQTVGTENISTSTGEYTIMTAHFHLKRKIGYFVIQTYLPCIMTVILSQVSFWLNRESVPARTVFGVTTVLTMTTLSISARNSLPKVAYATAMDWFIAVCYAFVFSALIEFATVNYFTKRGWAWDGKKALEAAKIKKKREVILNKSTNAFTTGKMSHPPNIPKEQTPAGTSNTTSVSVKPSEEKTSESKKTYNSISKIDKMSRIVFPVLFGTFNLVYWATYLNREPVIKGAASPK
Nature of the assay: Binding Assay. As for the experimental part:
Receptor binding assays were performed in 96-well format in deep-well plates. For each 96-well plate one ampulle of membrane homogenate was thawed and diluted in binding buffer (50 mM Tris pH=7.4, 100 mM KCl) and 200 μL was dispensed into each well. Radioligand [3H]Ro151788 (Perkin Elmer: NET757250UC) was prepared in binding buffer and added to each well in 50 μL volume to give final concentration of 0.5 nM. Test compounds in suitable concentration(s) were added in additional 50 μL. The final assay volume was 300 μL. Incubation was carried out for 60 minutes at 4° C. For non-specific binding 10 μM unlabeled diazepam was used. After incubation samples were filtered over UniFilter GF/B™ using Filtermate Harvester (Perkin Elmer) and washed with 5×1 mL binding buffer. The plate was dried at 40° C. for an hour and 40 μL Microscint (Perkin Elmer) scintillation cocktail was added to each well. The plate was read in Microbeta (Perkin Elmer).

With `Cc1nnn(-c2ccc(F)cc2)c1COc1ccc2c(n1)CN(C(=O)C(F)(F)F)C2` [US12370182, Example 51], the Ki is 31 nM. In the case of `Cc1onc(-c2ccc(F)cc2)c1COc1ccc2c(n1)CCN(C(=O)N1CCCCC1)C2` [US12370182, Example 85], the affinity, expressed as Ki, was 36 nM. The Ki values of the last two compounds are within 1.5-fold of each other.
